In paper PMC10144058, “New Hybrid Scaffolds Based on 5-FU/Curcumin: Synthesis, Cytotoxic, Antiproliferative and Pro-Apoptotic Effect” (Pharmaceutics, 2023):
Where two headings read alike, the source gives them in different places.

Columns and labels:
[1] = test system: HaCaT cells; assay: Cell viability, sulforhodamine B (SRB) assay, non-malignant cells; type: cell-based; details: Homo sapiens
[2] = test system: SW480 cells; assay: Cell viability, sulforhodamine B (SRB) assay; type: cell-based; details: Homo sapiens
[3] = test system: SW620 cells; assay: Cell cycle analysis (PI, flow cytometry); type: cell-based, human; details: SW620, treated with IC50 value, 48 h
Procedure: (§1) The method used for the recognition of cell cycle phases (G0/G1, S, G2/M) was based on staining with a fluorescent dye (propidium iodide—PI), as a direct relationship between fluorescence intensity and DNA content can be established. For this method, 250,000 cells/well were initially seeded in 6-well culture plates with an adherence period of 24 h at 37 °C in a 5% CO2 atmosphere. […] After treatment, cells were obtained by mechanical disaggregation, and the cell pellet was centrifuged and washed with a versene buffer. The cell pellet was fixed with 1.8 mL of cold 70% ethanol and kept at 4 °C overnight. Subsequently, two washes with a versene buffer were performed, and the pellet was resuspended in 300 µL of PBS containing 0.25 mg/mL of RNAsa and 0.1 mg/mL of PI. After a 30 min period of dark incubation, the fluorescence of 10,000 cells was analyzed using a FACS Canto II flow cytometer. The PI signal was analyzed with excitation at 488 nm using a sapphire laser, and fluorescence was detected at 610 nm. The data analysis was performed with FlowJo 10.8.1 software.

[4] = test system: SW480 cells; assay: Cell cycle analysis (PI, flow cytometry); type: cell-based, human; details: SW480, treated with IC50 value, 48 h
Procedure: as §1

[5] = test system: SW480 cells; assay: Antiproliferative activity (SRB, 0-8 days); type: cell-based; details: Homo sapiens, read-out: Cell Viability (%) ± SE; for viability at 0.625 µM: SW480, 0.625 µM; for viability at 10 µM: SW480, 10 µM
Procedure: For this experiment, the same colorimetric method (SRB) from the evaluation of cell viability was used, although with some modifications. Initially, 2500 cells per well were seeded in 96-well culture plates, and a 24 h adherence period was performed at 37 °C in a 5% CO2 atmosphere. […] For this assay, incubation periods of 0, 2, 4, 6, and 8 days were used, and the fixation, staining, and reading conditions were the same as those previously described for the cytotoxicity assay.

[6] = test system: SW620 cells; assay: Cell viability, sulforhodamine B (SRB) assay; type: cell-based, human; details: Homo sapiens
[7] = test system: caspase 3, caspase 7, caspase 8 and p53 in SW620 cells; assay: Apoptotic biomarkers (ELISA); type: cell-based, human; details: SW620, treated with IC50, 48 h, vs control
Procedure: To provide an approach to the possible molecular mechanisms through which the hybrid compounds induce an effect on the cell lines, different proteins related to the process of death by apoptosis were determined. For this method, 1,000,000 cells were initially seeded per Petri dish, with an adherence period of 24 h at 37 °C in a 5% CO2 atmosphere. […] Later, the consumed medium was discarded, and after the addition of the versene buffer, the cells were obtained by mechanical disaggregation. The cells were then lysed with a cell lysis buffer and centrifuged to obtain the supernatant, which was used to determine the biomarkers of interest by enzyme-linked immunosorbent assays. These ELISA kits were provided by Elabscience Biotechnology Co., Houston, TX, USA [26].

[8] = test system: SW620 cells; assay: Mitochondrial membrane potential (DiOC6/PI, flow cytometry); type: cell-based, human; details: SW620, treated with IC50, 48 h
Procedure: (§2) The fluorescent dyes PI and DIOC6 (3,3’-dihexyloxacarbocyanine iodide) were used to observe the depolarization of the mitochondrial membrane as well as possible cell membrane damage. For this method, 250,000 cells/well were initially seeded in 6-well culture plates during a 24 h adherence period at 37 °C in a 5% CO2 atmosphere. […] After treatment, cells were obtained by mechanical disaggregation, stained with DiOC6 and PI, and incubated at room temperature for 30 min in the dark. Ten thousand events were analyzed by flow cytometry with excitation at 488 nm and emission detection with green (530/15 nm) and red (610/20 nm) filters.

[9] = test system: SW480 cells; assay: as above; type: cell-based, human; details: SW480, treated with IC50, 48 h
Procedure: as §2

[10] = test system: SW480 cells; assay: Cell death induction (Annexin-V/PI, flow cytometry); type: cell-based, human; details: SW480, treated with IC50, 48 h
Procedure: For this method, 250,000 cells/well were initially seeded in 6-well culture plates during a 24 h adherence period at 37 °C in a 5% CO2 atmosphere. […] After treatment, cells were obtained by mechanical disaggregation, resuspended in a solution with Annexin-V-FLUOS and PI, and incubated for 20 min in the dark before flow cytometry analysis.

## COc1cc(/C=C/C(=O)c2ccc(OCCCCCn3cc(Cn4cc(F)c(=O)[nH]c4=O)nn3)cc2)ccc1O [Compound 6d, (E)-5-fluoro-1-((1-(5-(4-(3-(4-hydroxy-3-methoxyphenyl)acryloyl)phenoxy)pentyl)-1H-1,2,3-triazol-4-yl)methyl)pyrimidine-2,4(1H,3H)-dione]
[1]; 24 h
  IC50: 42.6 ± 6.93 µM
[1]; 48 h
  IC50: 20.3 ± 2.66 µM
[2]; SW480, 24 h
  IC50: 15.7 ± 1.91 µM
[2]; SW480, 48 h
  IC50: 2.43 ± 0.33 µM
[3]
  Cell cycle distribution, G0/G1: 4.4%
  Cell cycle distribution, G2/M: 11.0%
  Cell cycle distribution, S Phase: 24.7%
[4]
  Cell cycle distribution, G0/G1: 42.9%
  Cell cycle distribution, G2/M: 10.1%
  Cell cycle distribution, S Phase: 20.0%
  Cell cycle distribution, Sub G0/G1: 24.1%
[5]; 48 h, 2 days after plating
  viability at 0.625 µM: 90.1 ± 1.45%
  viability at 10 µM: 7.35 ± 1.45%
[5]; 96 h, 4 days after plating
  viability at 0.625 µM: 55.5 ± 2.21%
  viability at 10 µM: 0.75 ± 0.2%
[5]; 144 h, 6 days after plating
  viability at 0.625 µM: 46.36 ± 0.18%
  viability at 10 µM: 0.68 ± 0.14%
[5]; 192 h, 8 days after plating
  viability at 0.625 µM: 32.3 ± 0.77%
  viability at 10 µM: 0%
[6]; SW-620, 24 h, 24 h
  IC50: 37.1 ± 3.05 µM
[6]; SW-620, 48 h, 48 h
  IC50: 7.51 ± 1.47 µM
[7]
  levels of biomarkers (caspase 3, caspase 7, caspase 8, p53): no significant differences
[8]
  Dioc6 High population (live cells with high membrane polarization): 19.2%
  Dioc6 Low population (cells that lose membrane polarization): 0.11%
  PI+ population (membrane damage or dead cells): 76.1%
  changes in the mitochondrial membrane potential: do not induce significant changes
[9]
  Dioc6 High population (live cells with high membrane polarization): 76.2%
  Dioc6 Low population (cells that lose membrane polarization): 0%
  PI+ population (membrane damage or dead cells): 23.7%
  changes in the mitochondrial membrane potential: do not induce significant changes
[10]
  Annexin V/PI quadrant Q3 (early apoptotic cells): 50.2%
